Results on six substances are retold here after PMC5880497, “Interaction of lecithin:cholesterol acyltransferase with lipid surfaces and apolipoprotein A-I-derived peptides” (Journal of Lipid Research, 2018).

No end group written: not given here.

For experiment [1], the target named is T1, glycosylated human LCAT protein (Homo sapiens, UniProt P04180).
T1 construct: purchased Sino Biological Inc., Beijing, China; host or cells: human cells
T1 sequence (P04180 25-440): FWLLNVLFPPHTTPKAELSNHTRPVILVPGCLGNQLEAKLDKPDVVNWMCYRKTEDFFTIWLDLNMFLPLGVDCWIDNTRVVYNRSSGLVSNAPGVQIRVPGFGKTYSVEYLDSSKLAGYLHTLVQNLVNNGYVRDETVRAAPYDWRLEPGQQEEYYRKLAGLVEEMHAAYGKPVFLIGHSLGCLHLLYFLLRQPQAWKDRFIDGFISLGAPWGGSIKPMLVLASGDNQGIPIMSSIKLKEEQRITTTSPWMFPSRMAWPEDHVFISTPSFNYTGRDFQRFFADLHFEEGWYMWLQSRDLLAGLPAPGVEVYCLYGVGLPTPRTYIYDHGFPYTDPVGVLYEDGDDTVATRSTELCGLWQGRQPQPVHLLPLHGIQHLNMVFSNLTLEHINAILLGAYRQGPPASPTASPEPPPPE
Put plainly: MP-SPR binding of LCAT to immobilised biotin-labelled apoA-I-derived peptides. Particulars: N-terminal biotin-peptide on streptavidin-coated sensor, LCAT 156-5,000 nM serial injections of 15 min, 10 μl/min, buffer A pH 7.4, 293 K, Langmuir fit. The method, then: POPC dissolved in chloroform (25 mg/ml) was obtained from Avanti Polar Lipids (Alabaster, AL). Calcium chloride, HEPES, CHAPS, sodium chloride, EDTA, sodium azide, and potassium dihydrogen phosphate were obtained from Merck Sigma-Aldrich (Darmstadt, Germany). Potassium chloride was obtained from Honeywell Riedel de Haën (Seelz, Germany); disodium hydrogen phosphate was obtained from Fisher Scientific (Hampton, NH). Peptides and N-terminal biotin-labeled peptides were synthesized by Peptide Protein Research Ltd., Hampshire, UK and had the following amino acid sequences: i) 122-142, […]; ii) 135-155, […]; iii) 150-170, […]; iv) 150-170-Y166F, […]; and v) 185-205, […]. Lyophilized glycosylated human LCAT protein (Sino Biological Inc., Beijing, China; a recombinant protein produced in human cells) was reconstituted with 400 μl of ultrapure sterile water to yield LCAT at 5 μM in PBS (manufacturer specifications). Ultrapure water used for preparation of the buffer and in all measurements was prepared with a Milli-Q purification system, having a resistivity of 18 MΩ·cm and TOC level of <5 ppm. The following buffers were used: 20 mM PBS, 1 mM EDTA, 1 mM Na azide (pH 7.4) (buffer A); and 20 mM HEPES and 150 mM NaCl (pH 7.4) (buffer B).
Measurements were performed with a multi-parameter SPR Navi™ 200 (BioNavis Ltd., Tampere, Finland) instrument. The setup was equipped with two incident laser wavelengths, 670 nm and 785 nm, two independent flow channels, inlet tubing and outlet (waste) tubing, and an autosampler. Both of the flow channels were measured simultaneously with 670 nm and 785 nm incident light. The measurement temperature was kept constant at 293° K. Biotin-coated SPR sensors (Bionavis Ltd.) were placed in the flow-cell. The flow rates used for the streptavidin interaction with biotin, biotin-peptides with streptavidin, and for LCAT interaction with immobilized peptides were 10 μl/min. SPR spectra were recorded after introduction of buffer A into the flow-cell for 10–30 min until a stable baseline was achieved, after which the surface was fully saturated with streptavidin during a 10 min serial injection at 1.9 μM to saturate the SPR sensor. It was observed that after 5 min the SPR sensor was fully coated with streptavidin; therefore, the method was adapted to 5 min. In the second phase of the measurement, in DMSO solubilized biotin-peptides with a final concentration of 100 μM were injected in parallel into both flow channels for 7 min at […] to cover the SPR sensor fully, i.e., until all streptavidin bindings sites were fully occupied. Parallel injections ensured that two peptides were analyzed simultaneously. Increasing concentrations of LCAT were then injected into both channels via serial injection, to ensure the lowest variation of LCAT injection for 15 min at increasing concentrations (156, 313, 625, 1250, 2,500, and 5,000 nM) to determine the binding constant of the LCAT-peptide complexes. The data was fitted in OriginPro (v. 8.6, OriginLab Corp., Northampton, MA) according to the Langmuir model to obtain the dissociation constants (Kd) and the responses of saturated binding (Rmax): R=Rmax/1+Kd/c
where R is the final response after each injection and c is the concentration of LCAT in each injection.
To also elucidate the specificity of different peptide regions against LCAT, we carried out MP-SPR experiments to determine dissociation constants (Kd) for the LCAT-peptide complexes. […]

For experiment [2] the following is noted: LCAT with small unilamellar vesicles in the absence of apolipoproteins; cited from earlier work. From the text: To assess the possibility of the second hypothesis, we calculated the binding free-energies for LCAT in open and closed states. As shown by the PMF profiles in Fig. 5A, the lid-open state (ΔGwater→lipid = −28 ± 1 kJ/mol) is not able to bind so strongly to lipids when compared with the lid-closed state (ΔGwater→lipid = −34 ± 1 kJ/mol), although the previous findings indicated a deeper lipid interaction for the open state (Fig. 3B). The value for the closed state is well in agreement with existing experimentally determined dissociation constants giving binding a free-energy value of −36 kJ/mol f ...

Experiment [3] can be described thus: QCM binding of LCAT, peptides or LCAT plus peptide to a POPC supported lipid bilayer. Particulars: POPC SLB, LCAT 37.5 nM in buffer A, without apoA-I or peptide. The method, then:
Prior to the QCM measurements, the PBS buffer formed after reconstitution of LCAT was exchanged for buffer A due to the extremely high sensitivity of the QCM method to slight differences in the ionic strength of the background buffer. The LCAT solution was placed in an Amicon Ultra-0.5 10K centrifugal filter device (Merck Millipore Ltd., Tullagreen Carrigtohill, Ireland) and equal volumes of buffer A were filtered through 10 times at 14,000 g, after which 400 μl of buffer A were added to fully recover LCAT at 5 μM. The peptides were dissolved into buffer A at a final concentration of 100 μM. An impedance-based QCM instrument (KSV Instruments Ltd., Helsinki, Finland) was used for the measurements. The measurement temperature was kept constant at 293° K. Before measurements, silica-coated QCM sensors (Q-Sense Inc./BiolinScientific, Västra Frölunda, Sweden) were first flushed with 70% ethanol and ultrapure water, dried under nitrogen flow, and finally oxygen plasma treated (PDC-002; Harrick Plasma, Ithaca, NY) for 5 min at 29.6 W and 133-173 Pa. Samples were injected into the measurement chamber with a peristaltic pump system (Ismatec/Cole-Parmer GmbH, Wertheim, Germany). […] Neither LCAT nor peptides induced changes in viscoelastic properties of the bilayer, which was seen as negligible changes in the recorded energy dissipation. […]

By Kd is commonly meant the concentration at which binding is half-saturated. Higher therefore signals a looser complex. As for DRARAHVDALRTHLAPYSDEL [150-170], in experiment [1], the affinity, expressed as Kd, was 290 nM.

As to “lecithin:cholesterol acyltransferase [LCAT]”, the “Binding free-energy from experimentally determined dissociation constants” value in experiment [2] is -36 kJ/mol. Also, the “Binding of LCAT alone to the POPC membrane” value in experiment [3] is listed as “binds to the POPC membrane without apoA-I”.

In turn, DRARAHVDALRTHLAPFSDEL [150-170-Y166F] returned a Kd in experiment [1] of 1840 nM.

The substance “GGARLAEYHAKATEHLSTLSE [185-205, reference compound]” yielded a Kd in experiment [1] of 4690 nM.

With HELQEKLSPLGEEMRDRARAH [135-155], binding in experiment [1] was characterised by a dissociation constant (Kd) of 819 nM. Compared with the last substance, the Kd is about 5.7-fold lower.

Turning to LRAELQEGARQKLHELQEKLS [122-142], binding in experiment [1] was put at a Kd of 1030 nM. This Kd and that of the substance before are within 1.5-fold of each other.
